Test results as given in PubChem BioAssay AID330 (DTP/NCI, 2004).
Several values for one entry are separate records, joined by “and”; a condition that tells them apart may be missing. Identical values can stand only once. Inconclusive results and toxic doses are left out. The calls were made as follows: active = survival T/C of 150% or more; inactive = T/C below 125% in these data.

System: P388 leukemia ip, CD2F1 mice, survival T/C
Test: NCI In Vivo Anticancer Drug Screen. Data for tumor model P388 Leukemia (intraperitoneal) in CD2F1 (CDF1) mice
Conditions: endpoint: median survival time, higher = longer survival
In short: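 Mice carrying the transplanted tumor received test compound or vehicle. Survival was recorded in each group, and the value is the treated-group measurement divided by that of the vehicle-treated control group.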

[1] = dose: 25.0 mg/kg/injection, schedule: Q01DX009 (ip), vehicle: distilled water + Tween-80
[2] = dose: 50.0 mg/kg/injection, schedule: Q01DX009 (ip), vehicle: distilled water + Tween-80
[3] = dose: 100.0 mg/kg/injection, schedule: Q01DX009 (ip), vehicle: distilled water + Tween-80
[4] = dose: 200.0 mg/kg/injection, schedule: Q01DX009 (ip), vehicle: distilled water + Tween-80
[5] = dose: 60.0 mg/kg/injection, schedule: Q01DX005 (ip), vehicle: saline with Tween-80
[6] = dose: 120.0 mg/kg/injection, schedule: Q01DX005 (ip), vehicle: saline with Tween-80
[7] = dose: 240.0 mg/kg/injection, schedule: Q01DX005 (ip), vehicle: saline with Tween-80
[8] = dose: 100.0 mg/kg/injection, schedule: Q04DX003 (ip), vehicle: saline with Tween-80
[9] = dose: 200.0 mg/kg/injection, schedule: Q04DX003 (ip), vehicle: saline with Tween-80
[10] = dose: 12.5 mg/kg/injection, schedule: Q01DX009 (ip), vehicle: distilled water + Tween-80
[11] = dose: 100.0 mg/kg/injection, schedule: Q01DX009 (ip), vehicle: saline with Tween-80
[12] = dose: 200.0 mg/kg/injection, schedule: Q01DX009 (ip), vehicle: saline with Tween-80
[13] = dose: 400.0 mg/kg/injection, schedule: Q01DX009 (ip), vehicle: saline with Tween-80
[14] = dose: 50.0 mg/kg/injection, schedule: Q01DX009 (ip), vehicle: saline with Tween-80
[15] = dose: 7.5 mg/kg/injection, schedule: Q01DX005 (ip), vehicle: saline with Tween-80
[16] = dose: 15.0 mg/kg/injection, schedule: Q01DX005 (ip), vehicle: saline with Tween-80
[17] = dose: 100.0 mg/kg/injection, schedule: Q01DX009 (ip), vehicle: saline
[18] = dose: 200.0 mg/kg/injection, schedule: Q01DX009 (ip), vehicle: saline

Measured: T/C

O=C(Oc1ccc[nH]c1=O)c1cccc(Cl)c1
inactive: [1] 100 % of control | [2] 100 % of control | [3] 95 % of control | [4] 99 % of control | dose: 400.0 mg/kg/injection, schedule: Q01DX009 (ip), vehicle: distilled water + Tween-80 97 % of control

COC(=O)C1(CC(=O)c2cccs2)NC(=S)NC(=O)C1C#N (stereo unspecified)
inactive: dose: 60.0 mg/kg/injection, schedule: Q01DX005 (ip), vehicle: saline 98 % of control | dose: 120.0 mg/kg/injection, schedule: Q01DX005 (ip), vehicle: saline 100 % of control | dose: 240.0 mg/kg/injection, schedule: Q01DX005 (ip), vehicle: saline 94 % of control

COC(SC)(C(=O)O)c1cc(-c2c(Cl)cccc2Cl)no1 (stereo unspecified)
inactive: [5] 96 % of control | [6] 93 % of control | [7] 112 % of control

CCOC(=O)COc1cc2c(cc1Cc1ccc3c(c1)OCO3)OCO2
inactive: dose: 12.5 mg/kg/injection, schedule: Q01DX005 (ip), vehicle: Klucel (hydroxypropylcellulose) (HPC) 96 % of control | dose: 25.0 mg/kg/injection, schedule: Q01DX005 (ip), vehicle: Klucel (hydroxypropylcellulose) (HPC) 96 % of control | dose: 50.0 mg/kg/injection, schedule: Q01DX005 (ip), vehicle: Klucel (hydroxypropylcellulose) (HPC) 101 % of control | dose: 100.0 mg/kg/injection, schedule: Q01DX005 (ip), vehicle: Klucel (hydroxypropylcellulose) (HPC) 98 % of control | dose: 200.0 mg/kg/injection, schedule: Q01DX005 (ip), vehicle: Klucel (hydroxypropylcellulose) (HPC) 99 % of control

O=C(Nc1ccc(Cl)cc1C(=O)c1ccccn1)c1ccccc1
inactive: dose: 12.5 mg/kg/injection, schedule: Q04DX003 (ip), vehicle: saline with Tween-80 107 % of control | dose: 25.0 mg/kg/injection, schedule: Q04DX003 (ip), vehicle: saline with Tween-80 93 % of control | dose: 50.0 mg/kg/injection, schedule: Q04DX003 (ip), vehicle: saline with Tween-80 108 % of control | [8] 94 % of control | [9] 97 % of control

COc1ccc(C(=O)C(C)Oc2ccccc2OC)cc1OC (stereo unspecified)
inactive: dose: 10.0 mg/kg/injection, schedule: Q01DX005 (ip), vehicle: Klucel (hydroxypropylcellulose) (HPC) 99 % of control | dose: 20.0 mg/kg/injection, schedule: Q01DX005 (ip), vehicle: Klucel (hydroxypropylcellulose) (HPC) 100 % of control | dose: 40.0 mg/kg/injection, schedule: Q01DX005 (ip), vehicle: Klucel (hydroxypropylcellulose) (HPC) 101 % of control

O=C1C=C2c3ccccc3CC(C(=O)O)C2CC1 (stereo unspecified)
inactive: [5] 100 % of control | [6] 100 % of control | [7] 102 % of control

CCOC(=O)c1cc(OC(C)=O)c2ccc(OC)c(OC)c2c1
inactive: dose: 6.25 mg/kg/injection, schedule: Q01DX009 (ip), vehicle: distilled water + Tween-80 101 % of control and 105 % of control and 90 % of control | [2] 91 % of control and 93 % of control and 97 % of control | [3] 91 % of control | [4] 93 % of control

O=C(Oc1ccc[nH]c1=O)c1cccc(C(F)(F)F)c1
inactive: [10] 100 % of control | [1] 100 % of control | [2] 102 % of control | [3] 96 % of control | [4] 90 % of control

CCCC(=O)Nc1ccc(C2=NNC(=O)C3CC23)cc1 (stereo unspecified)
inactive: dose: 50.0 mg/kg/injection, schedule: Q01DX005 (ip), vehicle: saline + Tween-80 + alcohol 99 % of control | dose: 100.0 mg/kg/injection, schedule: Q01DX005 (ip), vehicle: saline + Tween-80 + alcohol 99 % of control | dose: 200.0 mg/kg/injection, schedule: Q01DX005 (ip), vehicle: saline + Tween-80 + alcohol 97 % of control

CC1CCC2(C)CCC3(C)C(=CCC4C5(C)CCC(Oc6ccc(O)cc6)C(C)(C)C5CCC43C)C2C1C(=O)O (stereo unspecified)
inactive: dose: 0.5 mg/kg/injection, schedule: Q01DX005 (ip), vehicle: DMSO 101 % of control | dose: 1.0 mg/kg/injection, schedule: Q01DX005 (ip), vehicle: DMSO 100 % of control | dose: 2.0 mg/kg/injection, schedule: Q01DX005 (ip), vehicle: DMSO 101 % of control | dose: 4.0 mg/kg/injection, schedule: Q01DX005 (ip), vehicle: DMSO 100 % of control

O=C(/C=C/c1ccccc1)N1CCCCC1
inactive: [11] 90 % of control | [12] 95 % of control | [13] 95 % of control

N=C1SCc2ccc3ccccc3c21
inactive: [14] 100 % of control | [11] 124 % of control | [13] 97 % of control

CC(CN1c2ccccc2Sc2ccccc21)N(C)C (stereo unspecified)
inactive: dose: 25.0 mg/kg/injection, schedule: Q01DX001 (ip), vehicle: saline 99 % of control | dose: 50.0 mg/kg/injection, schedule: Q01DX001 (ip), vehicle: saline 101 % of control | dose: 100.0 mg/kg/injection, schedule: Q01DX001 (ip), vehicle: saline 95 % of control

O=C(c1cccs1)C1Cc2ccccc2C1=O (stereo unspecified)
inactive: [8] 95 % of control | [9] 90 % of control | dose: 400.0 mg/kg/injection, schedule: Q04DX003 (ip), vehicle: saline with Tween-80 90 % of control

O=C(c1ccccc1)c1ccc2n[se]nc2c1
inactive: dose: 3.75 mg/kg/injection, schedule: Q01DX005 (ip), vehicle: saline with Tween-80 100 % of control | [15] 87 % of control | [16] 97 % of control

Cc1ccc(C2N3CCCN2CC3)cc1 (stereo unspecified)
inactive: [14] 104 % of control | [11] 102 % of control | [12] 109 % of control

CN(/N=C/c1ccccc1)C(N)=Nc1ccccc1
inactive: dose: 50.0 mg/kg/injection, schedule: Q01DX005 (ip), vehicle: saline with Tween-80 119 % of control | dose: 100.0 mg/kg/injection, schedule: Q01DX005 (ip), vehicle: saline with Tween-80 107 % of control | dose: 200.0 mg/kg/injection, schedule: Q01DX005 (ip), vehicle: saline with Tween-80 104 % of control

C=C1C=C(C)C(=O)O1
inactive: dose: 100.0 mg/kg/injection, schedule: Q01DX001 (ip), vehicle: saline with Tween-80 99 % of control | dose: 200.0 mg/kg/injection, schedule: Q01DX001 (ip), vehicle: saline with Tween-80 103 % of control | dose: 400.0 mg/kg/injection, schedule: Q01DX001 (ip), vehicle: saline with Tween-80 105 % of control

O=C(O)C(CS(=O)(=O)O)Nc1ncnc2nc[nH]c12 (stereo unspecified)
inactive: [17] 100 % of control | [18] 100 % of control | dose: 400.0 mg/kg/injection, schedule: Q01DX009 (ip), vehicle: saline 109 % of control

C[CH](C)[Ge]([CH3])([CH](C)C)[CH](C)C
inactive: dose: 50.0 mg/kg/injection, schedule: Q01DX009 (ip), vehicle: saline 100 % of control | [17] 93 % of control | [18] 110 % of control

CCOC(=O)c1nc(OCC)nc(OCC)c1C#CCO
inactive: [10] 95 % of control | [1] 93 % of control | [2] 102 % of control | [3] 98 % of control

COc1ccc(-c2c([O-])oc(-c3ccccc3)[n+]2C)cc1
inactive: [5] 98 % of control | [6] 96 % of control | [7] 98 % of control

O=C1c2ccccc2Cc2c(NCc3ccccc3)ncnc2N1Cc1ccccc1
inactive: [14] 104 % of control | [11] 101 % of control | [12] 90 % of control

O=c1[nH]c2c(c(=O)n1CC(O)CO)CCCC2 (stereo unspecified)
inactive: [5] 104 % of control | [6] 100 % of control | [7] 100 % of control

O=C(O)CC1OCC=C2CN3CCC45c6ccccc6NC4C1C2CC35 (stereo unspecified)
inactive: dose: 0.93 mg/kg/injection, schedule: Q01DX005 (ip), vehicle: Klucel (hydroxypropylcellulose) (HPC) 100 % of control | dose: 1.87 mg/kg/injection, schedule: Q01DX005 (ip), vehicle: Klucel (hydroxypropylcellulose) (HPC) 98 % of control | [15] 100 % of control | [16] 100 % of control | dose: 30.0 mg/kg/injection, schedule: Q01DX005 (ip), vehicle: saline with Tween-80 100 % of control
